Test results as given in patent US20060069132A1, “Azolecarboxamide herbicides” (priority 2004, published 2006).
Where two headings read alike, the source gives them in different places.

Columns and labels:
[1] = tested on: ducksalad; test: Test B flooded paddy test; format: in vivo, Heteranthera limosa; settings: Heteranthera limosa, 336 h, 1000 g ai/ha, scale 0 to 100 (0 no effect, 100 complete control), read-out: Ducksalad plant response rating
Outline: (§1)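 Treated at 2-leaf (paddy) or 1–4-leaf, 2–18 cm (postemergence); greenhouse 13–15 d; visual score vs control, 0 none to 100 complete control; dash = not tested.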

[2] = tested on: cocklebur; test: Test B pre-/postemergence herbicide test; format: in vivo, Xanthium strumarium; settings: for pest or weed control at 500 g/ha: 500 g ai/ha
Outline: (§2)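 Herbicidal effect was judged by eye on a 0–100 scale after plants stood 13 to 15 days in the greenhouse following pre- or postemergence treatment with surfactant-containing formulations.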

[3] = tested on: wheat; test: Test B postemergence herbicide test; format: in vivo, Triticum aestivum; settings: Triticum aestivum, post-emergence, 336 h, read-out: Wheat plant response rating
Outline: as §1

[4] = tested on: barnyardgrass; test: Test B flooded paddy test; format: in vivo, Echinochloa crus-galli; settings: Echinochloa crus-galli, 336 h, 1000 g ai/ha, scale 0 to 100 (0 no effect, 100 complete control), read-out: Barnyardgrass plant response rating
Outline: as §1

[5] = tested on: Surinam grass; test: Test B pre-/postemergence herbicide test; format: in vivo, Urochloa decumbens; settings: for pest or weed control at 500 g/ha: 500 g ai/ha
Outline: (§3)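 Evaluation is visual, comparing treated with control plants on a scale where 0 means no effect and 100 means full control. Treatments were preemergence, or postemergence on seedlings 2–18 cm tall, and held 13–15 days in the greenhouse.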

[6] = tested on: velvetleaf; test: Test B pre-/postemergence herbicide test; format: in vivo, Abutilon theophrasti
Outline: as §3

[7] = tested on: morningglory; test: Test B pre-/postemergence herbicide test; format: in vivo, Ipomoea coccinea; settings: for pest or weed control at 500 g/ha: 500 g ai/ha
Outline: as §2

[8] = tested on: giant foxtail; test: Test B pre-/postemergence herbicide test; format: in vivo, Setaria faberi; settings: for pest or weed control at 500 g/ha: 500 g ai/ha
Outline: as §3

[9] = tested on: small flower umbrella sedge; test: Test B flooded paddy test; format: in vivo, Cyperus difformis; settings: Cyperus difformis, 336 h, 1000 g ai/ha, scale 0 to 100 (0 no effect, 100 complete control), read-out: Sedge, Umbrella plant response rating
Outline: as §1

[10] = tested on: rice; test: Test B flooded paddy test; format: in vivo, Oryza sativa; settings: Oryza sativa, 336 h, 1000 g ai/ha, scale 0 to 100 (0 no effect, 100 complete control), read-out: Rice plant response rating
Outline: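 Each value is a visual 0–100 response rating taken against controls 13 to 15 days after treatment in the greenhouse. Plants received formulated chemical postemergence at the 1- to 4-leaf stage or, in flooded paddy, at the 2-leaf stage.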

[11] = tested on: barnyardgrass; test: Test B pre-/postemergence herbicide test; format: in vivo, Echinochloa crus-galli; settings: for pest or weed control at 500 g/ha: 500 g ai/ha
Outline: as §2

[12] = tested on: large crabgrass; test: Test B pre-/postemergence herbicide test; format: in vivo, Digitaria sanguinalis; settings: for pest or weed control at 500 g/ha: 500 g ai/ha
Outline: as §3

[13] = tested on: corn; test: Test B pre-/postemergence herbicide test; format: in vivo, Zea mays
Outline: as §3

[14] = tested on: blackgrass; test: Test B postemergence herbicide test; format: in vivo, Alopecurus myosuroides; settings: Alopecurus myosuroides, post-emergence, 336 h, read-out: Blackgrass plant response rating
Outline: as §1

[15] = tested on: lambsquarters; test: Test B pre-/postemergence herbicide test; format: in vivo, Chenopodium album; settings: for pest or weed control at 500 g/ha: 500 g ai/ha
Outline: as §3

[16] = 125 g ai/ha, 0 is no effect, 100 is complete control, preemergence
[17] = 125 g ai/ha, visual rating, scale 0 (no effect) to 100 (complete control)
[18] = postemergence, 500 g ai/ha, scale 0 to 100, 0 is no effect, 100 is complete control

CCc1nn(C(C)C)nc1C(=O)Nc1cccc(C(=O)N(C)C)c1 [Compound 358, N-[3-[(dimethylamino)carbonyl)phenyl]-5-ethyl-2-(1-methylethyl)-2H-1,2,3-triazole-4-carboxamide]
pest or weed control at 1000 g/ha [1]: 90% | Plant response rating (0 to 100 scale), Cocklebur [2, 16]: 40 | pest or weed control at 125 g/ha ([2]; Xanthium strumarium, post-emergence, 125 g ai/ha, visual rating, scale 0 (no effect) to 100 (complete control), read-out: Cocklebur plant response rating): 0% | pest or weed control at 500 g/ha ([2]; Xanthium strumarium, post-emergence, postemergence, scale 0 to 100, 0 is no effect, 100 is complete control, read-out: Cocklebur plant response rating): 20% | pest or weed control at 500 g/ha ([2]; Xanthium strumarium, pre-emergence, visual rating, 0 = no effect, 100 = complete control, read-out: Plant response rating, Cocklebur): 90% | plant injury at 125 g/ha [3, 17]: 0% | plant injury at 500 g/ha [3, 18]: 10% | pest or weed control at 1000 g/ha [4]: 80% | Plant response rating (0 to 100 scale), Surinam Grass [5, 16]: 50 | pest or weed control at 125 g/ha ([5]; Urochloa decumbens, post-emergence, 125 g ai/ha, visual rating, scale 0 (no effect) to 100 (complete control), read-out: Surinam Grass plant response rating): 10% | pest or weed control at 500 g/ha ([5]; Urochloa decumbens, post-emergence, postemergence, scale 0 to 100, 0 is no effect, 100 is complete control, read-out: Surinam Grass plant response rating): 10% | pest or weed control at 500 g/ha ([5]; Urochloa decumbens, pre-emergence, visual rating, 0 = no effect, 100 = complete control, read-out: Plant response rating, Surinam Grass): 100% | Plant response rating (0 to 100 scale), Velvetleaf [6, 16]: 50 | pest or weed control at 125 g/ha ([6]; Abutilon theophrasti, post-emergence, 336 h, 125 g ai/ha, visual rating, scale 0 (no effect) to 100 (complete control), read-out: Velvetleaf plant response rating): 10% | pest or weed control at 500 g/ha ([6]; Abutilon theophrasti, post-emergence, 336 h, postemergence, 500 g ai/ha, scale 0 to 100, 0 is no effect, 100 is complete control, read-out: Velvetleaf plant response rating): 20% | Plant response rating (0 to 100 scale), Morningglory [7, 16]: 50 | pest or weed control at 125 g/ha ([7]; Ipomoea, post-emergence, 336 h, 125 g ai/ha, visual rating, scale 0 (no effect) to 100 (complete control), read-out: Morningglory plant response rating): 20% | pest or weed control at 500 g/ha ([7]; Ipomoea, post-emergence, 336 h, postemergence, scale 0 to 100, 0 is no effect, 100 is complete control, read-out: Morningglory plant response rating): 50% | pest or weed control at 500 g/ha ([7]; Ipomoea, pre-emergence, 336 h, visual rating, 0 = no effect, 100 = complete control, read-out: Plant response rating, Morningglory): 100% | Plant response rating (0 to 100 scale), Foxtail, Giant [8, 16]: 60 | pest or weed control at 125 g/ha ([8]; Setaria faberi, post-emergence, 336 h, 125 g ai/ha, visual rating, scale 0 (no effect) to 100 (complete control), read-out: Foxtail, Giant plant response rating): 10% | pest or weed control at 500 g/ha ([8]; Setaria faberi, post-emergence, 336 h, postemergence, scale 0 to 100, 0 is no effect, 100 is complete control, read-out: Foxtail, Giant plant response rating): 30% | pest or weed control at 500 g/ha ([8]; Setaria faberi, pre-emergence, 336 h, visual rating, 0 = no effect, 100 = complete control, read-out: Plant response rating, Foxtail, Giant): 100% | pest or weed control at 1000 g/ha [9]: 80% | plant injury at 1000 g/ha [10]: 70% | Plant response rating (0 to 100 scale), Barnyardgrass [11, 16]: 70 | pest or weed control at 125 g/ha ([11]; Echinochloa crus-galli, post-emergence, 125 g ai/ha, visual rating, scale 0 (no effect) to 100 (complete control), read-out: Barnyardgrass plant response rating): 10% | pest or weed control at 500 g/ha ([11]; Echinochloa crus-galli, post-emergence, postemergence, scale 0 to 100, 0 is no effect, 100 is complete control, read-out: Barnyardgrass plant response rating): 20% | pest or weed control at 500 g/ha ([11]; Echinochloa crus-galli, pre-emergence, visual rating, 0 = no effect, 100 = complete control, read-out: Plant response rating, Barnyardgrass): 100% | Plant response rating (0 to 100 scale), Crabgrass, Large [12, 16]: 100 | pest or weed control at 125 g/ha ([12]; Digitaria sanguinalis, post-emergence, 125 g ai/ha, visual rating, scale 0 (no effect) to 100 (complete control), read-out: Crabgrass, Large plant response rating): 10% | pest or weed control at 500 g/ha ([12]; Digitaria sanguinalis, post-emergence, postemergence, scale 0 to 100, 0 is no effect, 100 is complete control, read-out: Crabgrass, Large plant response rating): 10% | pest or weed control at 500 g/ha ([12]; Digitaria sanguinalis, pre-emergence, visual rating, 0 = no effect, 100 = complete control, read-out: Plant response rating, Crabgrass, Large): 100% | Plant response rating (0 to 100 scale), Corn [13, 16]: 60 | plant injury at 125 g/ha ([13]; Zea mays, post-emergence, 125 g ai/ha, visual rating, scale 0 (no effect) to 100 (complete control), read-out: Corn plant response rating): 0% | plant injury at 500 g/ha ([13]; Zea mays, post-emergence, postemergence, 500 g ai/ha, scale 0 to 100, 0 is no effect, 100 is complete control, read-out: Corn plant response rating): 0% | Corn plant response rating (crop injury, 0 = no effect, 100 = complete kill) at 500 g/ha ([13]; Zea mays, pre-emergence, 500 g ai/ha, visual rating, 0 = no effect, 100 = complete control): 100% | pest or weed control at 125 g/ha [14, 17]: 10% | pest or weed control at 500 g/ha [14, 18]: 40% | Plant response rating (0 to 100 scale), Lambsquarters [15, 16]: 100 | pest or weed control at 125 g/ha ([15]; Chenopodium album, post-emergence, 336 h, 125 g ai/ha, visual rating, scale 0 (no effect) to 100 (complete control), read-out: Lambsquarters plant response rating): 30% | pest or weed control at 500 g/ha ([15]; Chenopodium album, post-emergence, 336 h, postemergence, scale 0 to 100, 0 is no effect, 100 is complete control, read-out: Lambsquarters plant response rating): 50% | pest or weed control at 500 g/ha ([15]; Chenopodium album, pre-emergence, 336 h, visual rating, 0 = no effect, 100 = complete control, read-out: Plant response rating, Lambsquarters): 100%
